From doi:10.1101/2021.10.07.463234v2 (biorxiv, 2021)
Structures can show the parent of a compound that is named as a salt. Where two headings read alike, the source gives them in different places.

Columns and labels:
[1] = target: T1, SARS-CoV-2 Mac1 (Severe acute respiratory syndrome coronavirus 2, UniProt P0DTD1); assay: biochemical; settings: read-out: %inhibition
[2] = target: T1, SARS-CoV-2 Mac1; assay: biochemical; settings: for inhibition at 100 µM: read-out: %inhibition; for %inhibition: 100 µM, inhibitor

Row | SMILES | inhibition at 100 µM [2] | further results
1 | Nc1nc(Cl)nc2c1ncn2[C@@H]1O[C@H](COP(=O)(O)OP(=O)(O)OP(=O)(O)O)[C@H](O)C1O (stereo partly drawn) [2-Chloroadenosine triphosphate tetrasodium] |  | inhibition at 100 µM [1]: 57%
2 | NNCc1cccc(O)c1 [3-Hydroxybenzylhydrazine dihydrochloride] |  | inhibition at 100 µM [1]: 32%
3 | Cc1cccc(C#Cc2ccccc2)n1 [6-Methyl-2-(phenylethynyl)pyridine hydrochloride] |  | inhibition at 100 µM [1]: 45%
4 | Oc1ncnc2[nH]ncc12 [Allopurinol] | 0% | inhibition at 100 µM [1]: 37%
5 | O=C1c2c(O)ccc(O)c2C(=O)c2c(NCCNCCO)ccc(NCCNCCO)c21 [Mitoxantrone] |  | inhibition at 100 µM [1]: 53%
6 | O=C(Nc1cc(C(=O)Nc2ccc(S(=O)(=O)O)cc2S(=O)(=O)O)cc(C(=O)Nc2ccc(S(=O)(=O)O)cc2S(=O)(=O)O)c1)Nc1cc(C(=O)Nc2ccc(S(=O)(=O)O)cc2S(=O)(=O)O)cc(C(=O)Nc2ccc(S(=O)(=O)O)cc2S(=O)(=O)O)c1 [NF449 octasodium salt] |  | inhibition at 100 µM [1]: 54%
7 | COc1cc2c(cc1OC)[C@@H](c1ccccc1)CN(C)CC2 [R(-)-SCH-12679 maleate] |  | inhibition at 100 µM [1]: 96%
8 | Nc1c(S(=O)(=O)O)cc(Nc2ccc(Nc3nc(Cl)nc(Nc4cccc(S(=O)(=O)O)c4)n3)c(S(=O)(=O)O)c2)c2c1C(=O)c1ccccc1C2=O [Reactive Blue 2] |  | inhibition at 100 µM [1]: 100%
9 | Nc1nc(SCc2ccc([N+](=O)[O-])cc2)c2ncn([C@@H]3O[C@H](CO)[C@@H](O)[C@H]3O)c2n1 [S-(4-Nitrobenzyl)-6-thioguanosine] |  | inhibition at 100 µM [1]: 35%
10 | Cc1ccc(O)c(N=Nc2ccccc2)n1 [SIB 1757] |  | inhibition at 100 µM [1]: 79%
11 | Cc1ccc(C(=O)Nc2ccc(S(=O)(=O)O)c3cc(S(=O)(=O)O)cc(S(=O)(=O)O)c23)cc1NC(=O)c1cccc(NC(=O)Nc2cccc(C(=O)Nc3cc(C(=O)Nc4ccc(S(=O)(=O)O)c5cc(S(=O)(=O)O)cc(S(=O)(=O)O)c45)ccc3C)c2)c1 [Suramin hexasodium] |  | inhibition at 100 µM [1]: 86%
12 | N#CC(C#N)=Cc1ccc(O)c(O)c1 [Tyrphostin 23] |  | inhibition at 100 µM [1]: 52%
13 | N#C/C(=C\c1ccc(O)c(O)c1)C(=O)NCc1ccccc1 [Tyrphostin AG 490] |  | inhibition at 100 µM [1]: 79%
14 | N#C/C(=C\c1ccc(O)c(O)c1)C(=O)NCCCNC(=O)/C(C#N)=C/c1ccc(O)c(O)c1 [Tyrphostin AG 537] |  | inhibition at 100 µM [1]: 54%
15 | C[C@@H]1COC(Nc2ccc3ncnc(Nc4ccc(OCc5nccs5)c(Cl)c4)c3c2)=N1 [Varlitinib] | 0% | 
16 | Clc1ccc(Nc2nnc(Cc3ccncc3)c3ccccc23)cc1 [Vatalanib (PTK787) 2HCl] | 0% | 
17 | CC(=O)O[C@H]1C[C@@H]2CC[C@@H]3[C@H](CC[C@@]4(C)[C@H]3C[C@H]([N+]3(C)CCCCC3)[C@@H]4OC(C)=O)[C@@]2(C)C[C@@H]1N1CCCCC1 [Vecuronium Bromide] | 0% | 
18 | C[C@]1(c2nc3c(C(N)=O)cccc3[nH]2)CCCN1 [Veliparib (ABT-888)] | 54.3% | 
19 | COC[C@H]1C[C@@H](c2nc(-c3ccc4c(c3)COc3cc5c(ccc6nc([C@@H]7CC[C@H](C)N7C(=O)[C@@H](NC(=O)OC)C(C)C)[nH]c65)cc3-4)c[nH]2)N(C(=O)[C@H](NC(=O)OC)c2ccccc2)C1 [Velpatasvir] | 3.54% | 
20 | CCCS(=O)(=O)Nc1ccc(F)c(C(=O)c2c[nH]c3ncc(-c4ccc(Cl)cc4)cc23)c1F [Vemurafenib (PLX4032, RG7204)] | 2.37% | 
21 | COc1ccc(C(CN(C)C)C2(O)CCCCC2)cc1 (stereo not drawn) [Venlafaxine HCl] |  | %inhibition [2]: 0%
22 | Nc1ncnc2c1ncn2[C@@H]1O[C@H](CO)[C@@H](O)[C@@H]1O [Vidarabine monohydrate] | 9.49% | 
23 | Nc1ncnc2c1ncn2[C@@H]1O[C@H](CO)[C@@H](O)[C@@H]1O [Vidarabine] |  | %inhibition [2]: 17.83%

Row | SMILES | inhibition at 100 µM [2] | further results
24 | COc1cccc(-c2ccc(NC(=O)C3=C(C(=O)O)CCC3)c(F)c2)c1 [Vidofludimus] | 19.8% | 
25 | N#Cc1ccc2[nH]cc(CCCCN3CCN(c4ccc5oc(C(N)=O)cc5c4)CC3)c2c1 [Vilazodone HCl] | 9.5% | 
26 | N#C[C@@H]1CCCN1C(=O)CNC12CC3CC(CC(O)(C3)C1)C2 [Vildagliptin (LAF-237)] | 11.7% | 
27 | CC[C@]1(O)C[C@@H]2CN(CCc3c([nH]c4ccccc34)[C@@](C(=O)OC)(c3cc4c(cc3OC)N(C)[C@H]3[C@@](O)(C(=O)OC)[C@H](OC(C)=O)[C@]5(CC)C=CCN6CC[C@]43[C@@H]65)C2)C1 [Vinblastine sulfate] | 1.94% | 
28 | CC[C@]12CCCN3CCc4c(n(c5ccccc45)[C@@](O)(C(=O)OC)C1)[C@@H]32 [Vincamine] | 13.7% | 
29 | CC[C@]1(O)C[C@H]2CN(CCc3c([nH]c4ccccc34)[C@@](C(=O)OC)(c3cc4c(cc3OC)N(C=O)[C@H]3[C@@](O)(C(=O)OC)[C@H](OC(C)=O)[C@]5(CC)C=CCN6CC[C@]43[C@@H]65)C2)C1 [Vincristine sulfate] | 42.2% | 
30 | CCOC(=O)C1=C[C@]2(CC)CCCN3CCc4c(n1c1ccccc41)[C@@H]32 [Vinpocetine] | 1.15% | 
31 | CS(=O)(=O)c1ccc(C(=O)Nc2ccc(Cl)c(-c3ccccn3)c2)c(Cl)c1 [Vismodegib (GDC-0449)] | 0% | 
32 | CC(=O)OC/C=C(C)/C=C/C=C(C)/C=C/C1=C(C)CCCC1(C)C [Vitamin A Acetate] | 4.44% | 
33 | CC1=C(/C=C/C(C)=C/C=C/C(C)=C/CO)C(C)(C)CCC1 [Vitamin A] | 2.61% | 
34 | O=C1O[C@H]([C@@H](O)CO)C(O)=C1O [Vitamin C] |  | %inhibition [2]: 15.62%
35 | C=C1CC[C@H](O)C/C1=C/C=C1\CCC[C@]2(C)[C@@H]([C@H](C)/C=C/[C@H](C)C(C)C)CC[C@@H]12 [Vitamin D2] | 0% | 
36 | CC(=O)Oc1c(C)c(C)c2c(c1C)CCC(C)(CCC[C@H](C)CCC[C@H](C)CCCC(C)C)O2 (stereo partly drawn) [Vitamin E Acetate] | 0% | 
37 | CC1=C(C/C=C(\C)CCC[C@H](C)CCC[C@H](C)CCCC(C)C)C(=O)c2ccccc2C1=O [Vitamin K1] | 19.5% | 
38 | OCC(CO)N[C@H]1C[C@](O)(CO)[C@@H](O)[C@H](O)[C@H]1O [Voglibose] | 7.63% | 
39 | CC[C@@H]1C(=O)N(C)c2cnc(Nc3ccc(C(=O)N[C@H]4CC[C@H](N5CCN(CC6CC6)CC5)CC4)cc3OC)nc2N1C(C)C [Volasertib (BI 6727)] | 0% | 
40 | CNCc1cc(-c2ccccc2F)n(S(=O)(=O)c2cccnc2)c1 [Vonoprazan Fumarate (TAK-438)] | 0% | 
41 | CCOC(=O)N[C@@H]1CC[C@@H]2[C@@H](C1)C[C@H]1C(=O)O[C@H](C)[C@H]1[C@H]2/C=C/c1ccc(-c2cccc(F)c2)cn1 [Vorapaxar] | 0% | 
42 | C[C@@H](c1ncncc1F)[C@](O)(Cn1cncn1)c1ccc(F)cc1F [Voriconazole] | 0% | 
43 | O=C(CCCCCCC(=O)Nc1ccccc1)NO [Vorinostat (SAHA, MK0683)] | 0% | 
44 | Cc1ccc(Sc2ccccc2N2CCNCC2)c(C)c1 [Vortioxetine (Lu AA21004) HBr] |  | %inhibition [2]: 12.23%
45 | Cc1ccc(Sc2ccccc2N2CCNCC2)c(C)c1 [Vortioxetine] |  | %inhibition [2]: 4.926%
46 | Cc1cccc(C)c1NC1=NCCCS1 [Xylazine HCl] | 25.3% | 

Row | SMILES | inhibition at 100 µM [2] | further results
47 | OC[C@@H](O)[C@H](O)[C@@H](O)CO [Xylitol] | 0% | 
48 | Cc1cc(C(C)(C)C)cc(C)c1CC1=NCCN1 [Xylometazoline HCl] | 9.99% | 
49 | O=C[C@H](O)[C@@H](O)[C@H](O)CO [Xylose] | 0% | 
50 | COCC[n+]1c2c(n(Cc3cnccn3)c1C)C(=O)c1ccccc1C2=O [YM155 (Sepantronium Bromide)] | 0% | 
51 | COC(=O)[C@@H]1[C@H]2C[C@H]3c4[nH]c5ccccc5c4CCN3C[C@@H]2CC[C@@H]1O [Yohimbine HCl] | 0% | 
52 | COc1cc(C(=O)NS(=O)(=O)c2ccccc2C)ccc1Cc1cn(C)c2ccc(NC(=O)OC3CCCC3)cc12 [Zafirlukast] | 0% | 
53 | Nc1ccn([C@H]2CC[C@@H](CO)O2)c(=O)n1 [Zalcitabine] | 19.2% | 
54 | CC(C(=O)O)c1ccc2c(c1)CC(=O)c1ccccc1S2 (stereo not drawn) [Zaltoprofen] | 16.4% | 
55 | CC(=O)N[C@H]1[C@H]([C@H](O)[C@H](O)CO)OC(C(=O)O)=C[C@@H]1NC(=N)N [Zanamivir] | 0% | 
56 | COc1nc(C)cnc1NS(=O)(=O)c1cccnc1-c1ccc(-c2nnco2)cc1 [Zibotentan (ZD4054)] | 7.65% | 
57 | Cc1cn([C@H]2C[C@H](N=[N+]=[N-])[C@@H](CO)O2)c(=O)[nH]c1=O [Zidovudine] |  | %inhibition [2]: 8.703%
58 | CC(c1cc2ccccc2s1)N(O)C(N)=O (stereo not drawn) [Zileuton] | 0% | 
59 | O=C1Cc2cc(CCN3CCN(c4nsc5ccccc45)CC3)c(Cl)cc2N1 [Ziprasidone HCl] | 0% | 
60 | C[C@H](CSC(=O)c1ccccc1)C(=O)N1C[C@@H](Sc2ccccc2)C[C@H]1C(=O)O [Zofenopril calcium] | 10.7% | 
61 | CN(C)CCc1c[nH]c2ccc(C[C@H]3COC(=O)N3)cc12 [Zolmitriptan] | 0% | 
62 | NS(=O)(=O)Cc1noc2ccccc12 [Zonisamide] | 0% | 
63 | O[C@@H](COc1cccc2ncccc12)CN1CCN(C2c3ccccc3[C@@H]3[C@H](c4ccccc42)C3(F)F)CC1 (stereo partly drawn) [Zosuquidar (LY335979) 3HCl] | 0% | 
64 | CCN1CCN(Cc2ccc(Nc3ncc(F)c(-c4cc(F)c5nc(C)n(C(C)C)c5c4)n3)nc2)CC1 [abemaciclib (LY2835219)] |  | %inhibition [2]: 4.001%
65 | O[C@H]1[C@H](O)[C@@H](O)[C@H](O)[C@@H](O)[C@H]1O [i-Inositol] | 0% | 
66 | CC[C@H](C)[C@H](N)C(=O)O [isoleucine] | 0% | 
67 | COc1cc2nccc(Oc3ccc(NC(=O)NC4CC4)c(Cl)c3)c2cc1C(N)=O [lenvatinib Mesylate] |  | %inhibition [2]: 0%
68 | O=C1[C@@H]2[C@H]3CC[C@H](C3)[C@@H]2C(=O)N1C[C@@H]1CCCC[C@H]1CN1CCN(c2nsc3ccccc23)CC1 [lurasidone] | 0% | 
